1 compound from paper PMC7200784, “In-vitro safety and off-target profile of the anti-parasitic arylmethylaminosteroid 1o” (Scientific Reports, 2020) can be followed below.

For this experiment, the system named is Caco-2 cell barrier. Kind of experiment: Caco-2 cell barrier integrity (TEER and capacitance, cellZscope2). The class given is cell-based. Conditions: 20 h after addition, value before addition = 100%; 10 mM EGTA. Here is the method:
Twenty thousand CaCo-2 cells were seeded on 24-well ThinCerts (pre-coated with FCS for 30 min). In the lower compartment (basolateral), 1 ml culture medium per well was added. As a control, half of the ThinCerts were not seeded with cells. The ThinCerts were transferred to the cellZscope2 (nanoAnalytics). Two hundred µl of medium was added to the ThinCerts to reach a final volume of 300 µl in the upper compartment (apical). The TEER and capacitance were measured every hour. After 5 days, the TEER reached a constant value of 700–900 Ohm*cm² and the medium was replaced with EMEM with 2% FCS, 2 mM L-glutamine, 1x non-essential amino acids, and 110 nM hydrocortisone. The TEER and capacitance were measured every hour for 1 day. Sc1o (0 µM, 1 µM, 10 µM, 25 µM, 50 µM) diluted in EMEM with 2% FCS, 2 mM L-glutamine, 1x non-essential amino acids, and 110 nM hydrocortisone were added to the apical compartment. As a control, 10 mM of EGTA was used. The cellZscope2 module was transferred into the incubator for 24 h, and every 30 min the TEER and capacitance were detected. TEER and capacitance values at the time point of adding the compound solution were used as references to calculate the alteration (t0h-value). […] At time point 0h and after 24 h the medium of the basolateral and apical compartment was collected and stored at −20 °C and analysed by LC-MS/MS.

In the case of `O=C(O)CN(CCOCCOCCN(CC(=O)O)CC(=O)O)CC(=O)O` [EGTA, Ethylene glycol-bis(β-aminoethyl ether)-N,N,N′,N′-tetraacetic acid], the “Relative TEER” value is 0.12 ± 0.03% and the Relative capacitance is given as 481 ± 168%.
